Test results from patent US8802866B2, “Pyridinylimidazolone derivatives for the inhibition of PI3 kinases” (Merck Patent GmbH, priority 2009, dated 2014).

Assays:
[1] = target: PI3Kbeta (Homo sapiens, UniProt P42338); experiment: Biochemical PI3Kbeta assay (neomycin SPA, lipid phosphorylation); settings: human recombinant GST-PI3K
In short: (§1)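 Recombinant PI3K incubated with lipid substrate and radioactive ATP for 120 min at room temperature with gentle stirring, then stopped with neomycin-coated PVT-SPA beads, ATP 60 mM and EDTA 6.2 mM in PBS. After 60 min bead binding and centrifugation, radioactive Ptdlns(3)P counted by scintillation.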

[2] = target: recombinant PI3Kalpha (shortened form of the catalytic subunit) (Homo sapiens, UniProt P42336); experiment: BIACORE PI3K binding assay (SPR); settings: 25° C.
In short: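 Contact time was 180 s and dissociation 240 s, in HEPES pH 7.40 buffer with 2% DMSO. Solvent-corrected, double-referenced data were fitted to a 1:1 model with mass transport.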

[3] = target: T1, mTOR (Homo sapiens, UniProt P42345); experiment: Biochemical mTOR assay (Millipore mTOR assay kit)
T1 construct: purchased Millipore 14-770
Method: The biochemical mTOR assay was carried out by the method described in the Millipore mTOR assay kit (catalogue number 14-770).

[4] = test system: PI3K-dependent phosphorylation of PKB at Serin 473 in PC3 cells; experiment: Cellular PI3K assay (P-S473-PKB Luminex assay in PC3 cells); type: cell-based; settings: Homo sapiens, PC-3, 0.5 h; PC3 cells, 30 min, serum-free, P-S473-PKB; read-out: IC50 (cell)
In short: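 PC3 cells were exposed for 30 min under serum-free conditions to 7 concentrations of compound, then lysed. Lysates were captured overnight at 4°C on anti-total-PKB Luminex beads and detected with P-S473-PKB antibody plus PE-labelled secondary.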

[5] = target: DNA-PK protein complex (Homo sapiens, UniProt P78527); experiment: Biochemical DNA-PK assay (FlashPlate)
In short: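 Streptavidin-coated FlashPlate radiometric kinase assay, stopped with 200 mM EDTA, then wells washed with 0.9% NaCl and bound radioactivity counted. Blank (non-specific reaction) defined with a proprietary kinase inhibitor at 10 μM.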

[6] = target: PI3Kalpha (Homo sapiens, UniProt P42336); experiment: Biochemical PI3Kalpha assay (neomycin SPA, lipid phosphorylation); settings: human recombinant GST-PI3K
In short: as §1

T1 sequence (P42345 1362-2549 limits assumed): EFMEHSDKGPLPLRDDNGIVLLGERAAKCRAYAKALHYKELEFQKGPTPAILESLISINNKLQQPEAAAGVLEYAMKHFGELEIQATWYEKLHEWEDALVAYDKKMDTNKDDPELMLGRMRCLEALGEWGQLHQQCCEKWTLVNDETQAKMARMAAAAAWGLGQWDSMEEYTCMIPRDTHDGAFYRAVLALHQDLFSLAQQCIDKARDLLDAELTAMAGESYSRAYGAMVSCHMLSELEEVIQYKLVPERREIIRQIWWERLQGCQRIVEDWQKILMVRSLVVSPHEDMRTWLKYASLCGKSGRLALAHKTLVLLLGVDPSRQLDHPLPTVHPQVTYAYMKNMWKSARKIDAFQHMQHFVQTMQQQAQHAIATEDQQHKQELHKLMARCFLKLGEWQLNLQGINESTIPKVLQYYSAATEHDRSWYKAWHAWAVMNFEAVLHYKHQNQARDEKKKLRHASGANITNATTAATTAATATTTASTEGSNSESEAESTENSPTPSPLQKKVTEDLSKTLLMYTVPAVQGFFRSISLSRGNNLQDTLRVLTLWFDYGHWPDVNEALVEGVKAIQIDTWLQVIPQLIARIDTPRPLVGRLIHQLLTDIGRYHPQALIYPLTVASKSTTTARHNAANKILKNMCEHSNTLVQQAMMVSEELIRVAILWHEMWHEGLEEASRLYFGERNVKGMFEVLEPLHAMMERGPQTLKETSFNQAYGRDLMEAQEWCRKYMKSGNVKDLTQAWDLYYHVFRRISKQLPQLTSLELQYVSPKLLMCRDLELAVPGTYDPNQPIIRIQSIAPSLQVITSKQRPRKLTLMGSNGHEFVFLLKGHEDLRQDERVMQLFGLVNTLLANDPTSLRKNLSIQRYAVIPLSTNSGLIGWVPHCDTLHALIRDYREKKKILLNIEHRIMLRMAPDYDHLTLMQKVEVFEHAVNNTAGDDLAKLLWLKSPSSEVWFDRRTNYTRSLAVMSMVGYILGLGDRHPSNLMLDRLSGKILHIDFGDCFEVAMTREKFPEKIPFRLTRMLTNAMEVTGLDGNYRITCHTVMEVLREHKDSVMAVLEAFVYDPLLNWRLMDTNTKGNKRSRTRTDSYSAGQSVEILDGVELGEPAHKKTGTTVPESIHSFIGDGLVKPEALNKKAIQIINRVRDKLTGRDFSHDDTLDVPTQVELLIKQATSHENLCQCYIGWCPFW
Chain of recombinant PI3Kalpha (shortened form of the catalytic subunit) (P42336 151-1068 limits assumed): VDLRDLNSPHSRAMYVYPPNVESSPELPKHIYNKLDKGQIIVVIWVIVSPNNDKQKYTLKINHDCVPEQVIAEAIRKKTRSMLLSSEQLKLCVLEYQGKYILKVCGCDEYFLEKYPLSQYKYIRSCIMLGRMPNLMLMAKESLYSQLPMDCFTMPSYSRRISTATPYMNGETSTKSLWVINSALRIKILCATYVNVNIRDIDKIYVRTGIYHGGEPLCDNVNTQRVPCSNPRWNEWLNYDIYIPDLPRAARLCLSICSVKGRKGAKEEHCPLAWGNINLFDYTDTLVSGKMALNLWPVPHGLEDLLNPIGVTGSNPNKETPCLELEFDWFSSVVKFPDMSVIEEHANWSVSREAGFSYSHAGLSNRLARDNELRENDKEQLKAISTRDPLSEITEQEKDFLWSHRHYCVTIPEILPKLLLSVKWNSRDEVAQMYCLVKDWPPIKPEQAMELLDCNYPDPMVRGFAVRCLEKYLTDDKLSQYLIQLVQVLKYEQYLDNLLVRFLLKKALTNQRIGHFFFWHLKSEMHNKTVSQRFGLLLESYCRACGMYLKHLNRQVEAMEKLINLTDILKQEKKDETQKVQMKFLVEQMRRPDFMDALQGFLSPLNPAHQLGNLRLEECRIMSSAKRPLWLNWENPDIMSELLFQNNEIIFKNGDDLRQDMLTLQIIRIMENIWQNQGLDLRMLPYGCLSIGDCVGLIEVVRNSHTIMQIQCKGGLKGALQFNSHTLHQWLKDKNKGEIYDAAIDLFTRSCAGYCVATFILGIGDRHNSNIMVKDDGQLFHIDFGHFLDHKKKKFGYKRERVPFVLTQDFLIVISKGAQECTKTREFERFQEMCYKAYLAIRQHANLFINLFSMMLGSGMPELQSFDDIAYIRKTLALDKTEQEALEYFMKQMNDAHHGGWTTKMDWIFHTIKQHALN
Chain of PI3Kbeta (P42338 whole entry): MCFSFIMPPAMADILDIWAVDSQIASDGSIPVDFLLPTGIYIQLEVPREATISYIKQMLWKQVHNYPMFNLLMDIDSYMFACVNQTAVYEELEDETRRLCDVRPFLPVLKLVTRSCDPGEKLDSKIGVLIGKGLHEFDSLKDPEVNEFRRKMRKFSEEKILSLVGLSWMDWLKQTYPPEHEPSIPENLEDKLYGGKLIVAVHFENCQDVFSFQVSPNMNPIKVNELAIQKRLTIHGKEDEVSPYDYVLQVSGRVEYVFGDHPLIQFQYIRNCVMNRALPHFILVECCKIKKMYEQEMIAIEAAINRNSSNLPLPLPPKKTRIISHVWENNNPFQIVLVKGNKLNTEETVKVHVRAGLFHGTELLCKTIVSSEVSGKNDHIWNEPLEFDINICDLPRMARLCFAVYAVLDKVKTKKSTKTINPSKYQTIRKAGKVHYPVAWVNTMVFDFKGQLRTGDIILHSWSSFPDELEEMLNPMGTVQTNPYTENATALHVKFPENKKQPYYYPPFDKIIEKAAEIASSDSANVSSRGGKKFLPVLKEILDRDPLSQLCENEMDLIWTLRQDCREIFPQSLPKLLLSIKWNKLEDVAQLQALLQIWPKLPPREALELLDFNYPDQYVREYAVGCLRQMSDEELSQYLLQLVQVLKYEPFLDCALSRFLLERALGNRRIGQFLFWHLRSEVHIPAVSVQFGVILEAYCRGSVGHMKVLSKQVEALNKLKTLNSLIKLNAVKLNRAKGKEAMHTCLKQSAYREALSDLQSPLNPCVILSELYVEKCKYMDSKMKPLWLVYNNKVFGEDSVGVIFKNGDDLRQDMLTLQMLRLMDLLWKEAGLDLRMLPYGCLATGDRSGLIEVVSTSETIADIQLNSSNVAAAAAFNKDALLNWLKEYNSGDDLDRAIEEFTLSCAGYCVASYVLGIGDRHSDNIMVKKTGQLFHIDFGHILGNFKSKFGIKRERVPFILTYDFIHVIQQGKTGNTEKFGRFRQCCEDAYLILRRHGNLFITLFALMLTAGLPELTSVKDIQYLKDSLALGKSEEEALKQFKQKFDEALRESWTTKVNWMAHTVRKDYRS
Chain of PI3Kbeta (P27986 whole entry partner): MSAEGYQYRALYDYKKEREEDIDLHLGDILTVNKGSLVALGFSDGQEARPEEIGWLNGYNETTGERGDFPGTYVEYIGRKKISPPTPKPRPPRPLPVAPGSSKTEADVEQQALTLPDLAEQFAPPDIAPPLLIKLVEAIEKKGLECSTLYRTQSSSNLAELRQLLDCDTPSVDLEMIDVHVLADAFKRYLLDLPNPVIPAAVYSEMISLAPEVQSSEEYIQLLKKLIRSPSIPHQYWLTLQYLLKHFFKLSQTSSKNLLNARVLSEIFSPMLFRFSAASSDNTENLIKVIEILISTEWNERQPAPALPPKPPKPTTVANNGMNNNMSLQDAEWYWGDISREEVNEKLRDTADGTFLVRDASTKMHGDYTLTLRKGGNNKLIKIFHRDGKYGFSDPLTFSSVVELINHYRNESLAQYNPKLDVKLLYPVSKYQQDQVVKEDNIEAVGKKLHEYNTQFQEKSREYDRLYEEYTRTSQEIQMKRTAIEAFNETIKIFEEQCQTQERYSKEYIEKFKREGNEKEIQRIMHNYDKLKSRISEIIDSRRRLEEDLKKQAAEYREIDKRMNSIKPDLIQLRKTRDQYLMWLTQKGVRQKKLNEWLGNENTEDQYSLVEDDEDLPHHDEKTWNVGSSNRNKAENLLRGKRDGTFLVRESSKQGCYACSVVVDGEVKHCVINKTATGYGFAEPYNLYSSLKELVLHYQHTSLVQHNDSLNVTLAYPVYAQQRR
Chain of PI3Kalpha (P42336 whole entry): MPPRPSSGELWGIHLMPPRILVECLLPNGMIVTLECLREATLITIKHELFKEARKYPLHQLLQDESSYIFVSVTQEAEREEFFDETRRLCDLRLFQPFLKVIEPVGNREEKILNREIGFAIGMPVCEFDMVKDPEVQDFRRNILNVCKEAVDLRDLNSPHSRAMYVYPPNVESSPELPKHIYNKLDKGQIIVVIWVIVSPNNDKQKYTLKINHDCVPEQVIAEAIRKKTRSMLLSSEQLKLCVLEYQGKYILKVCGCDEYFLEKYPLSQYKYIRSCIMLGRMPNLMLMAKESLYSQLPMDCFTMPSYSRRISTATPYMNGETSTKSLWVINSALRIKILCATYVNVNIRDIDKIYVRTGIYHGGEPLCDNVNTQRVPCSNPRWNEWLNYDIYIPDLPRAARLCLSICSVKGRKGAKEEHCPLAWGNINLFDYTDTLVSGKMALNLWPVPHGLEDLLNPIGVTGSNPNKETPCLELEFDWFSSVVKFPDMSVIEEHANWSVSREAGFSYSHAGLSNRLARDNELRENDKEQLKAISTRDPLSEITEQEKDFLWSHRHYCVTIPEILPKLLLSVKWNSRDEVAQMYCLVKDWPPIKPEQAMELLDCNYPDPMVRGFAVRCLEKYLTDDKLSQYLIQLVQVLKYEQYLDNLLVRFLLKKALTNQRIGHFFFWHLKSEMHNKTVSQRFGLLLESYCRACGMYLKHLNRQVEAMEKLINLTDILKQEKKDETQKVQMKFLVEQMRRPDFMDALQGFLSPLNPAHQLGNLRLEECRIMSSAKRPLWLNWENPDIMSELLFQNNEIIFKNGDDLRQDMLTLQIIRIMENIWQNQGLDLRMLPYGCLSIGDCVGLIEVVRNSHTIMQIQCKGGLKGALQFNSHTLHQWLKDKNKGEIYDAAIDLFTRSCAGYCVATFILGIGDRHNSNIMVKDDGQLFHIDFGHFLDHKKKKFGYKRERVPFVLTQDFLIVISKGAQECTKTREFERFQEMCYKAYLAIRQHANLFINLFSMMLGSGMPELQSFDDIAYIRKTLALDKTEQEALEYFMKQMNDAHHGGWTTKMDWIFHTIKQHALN
Chain of PI3Kalpha (P27986 whole entry partner): as the sequence (P27986 whole entry partner) above

Compound Cn1cc(-c2cc(-c3cnc4[nH]ncc4c3)ccn2)n(-c2ccc(C(C)(C)C#N)cc2)c1=O [Example A41, 2-Methyl-2-(4-{3-methyl-2-oxo-5-[4-(1H-pyrazolo[3,4-b]pyridin-5-yl)pyridin-2-yl]-2,3-dihydroimidazol-1-yl}phenyl)propionitrile] has an IC50 [1] of 100 to 10000 nM, a Kd [2] of 0.1 to 100 nM and a melting point of 294 °C. For the same compound, the IC50 [3] was 100 to 10000 nM, the IC50 [4] was 100 to 10000 nM and the IC50 [5] was 0.1 to 100 nM. For the same compound, the IC50 [6] was 0.1 to 100 nM.

Work on COc1ccc(-c2ccnc(-c3c[nH]c(=O)n3-c3ccc(C(C)(C)C#N)cc3)c2)cn1 [Example A15, 2-{4-[5-(6-Methoxy-[3,4′]bipyridinyl-2′-yl)-2-oxo-2,3-dihydroimidazol-1-yl]-10 phenyl}-2-methylpropionitrile] yielded an IC50 [1] of 100 to 10000 nM, a Kd [2] of 100 to 10000 nM and a melting point of 277 °C. For the same compound, the IC50 [4] was 100 to 10000 nM, the IC50 [5] was 100 to 10000 nM and the IC50 [6] was 100 to 10000 nM.

Work on CN1CCN(c2ccc(-n3c(-c4cc(-c5cnc6[nH]ccc6c5)ccn4)cn(C)c3=O)cc2C(F)(F)F)CC1 [Example A49, 1-Methyl-3-[4-(4-methylpiperazin-1-yl)-3-trifluoromethylphenyl]-4-[4-(1H-pyrrolo[2,3-b]pyridin-5-yl)pyridin-2-yl]-1,3-dihydroimidazol-2-one] yielded an IC50 [1] of 100 to 10000 nM, a Kd [2] of 0.1 to 100 nM and a melting point of 241 °C. The IC50 [3] was 100 to 10000 nM, the IC50 [4] was 100 to 10000 nM and the IC50 [5] was 0.1 to 100 nM. It also gave an IC50 [6] of 100 to 10000 nM.

In the case of COc1cc(-c2ccnc(-c3cn(C)c(=O)n3-c3ccc(C(C)(C)C#N)cc3)c2)ccn1 [Example A6, 2-{4-[5-(2′-Methoxy-[4,4′]bipyridinyl-2-yl)-3-methyl-2-oxo-2,3-dihydroimidazol-1-yl]phenyl}-2-methylpropionitrile], the IC50 [1] is reported as 100 to 10000 nM, the Kd [2] is reported as 100 to 10000 nM and the melting point is reported as 138 °C. It also gave an IC50 [4] greater than 10000 nM, an IC50 [5] of 100 to 10000 nM and an IC50 [6] of 100 to 10000 nM.

For Cn1cc(-c2cc(-c3cnc4ccccc4c3)ccn2)n(-c2ccc(C(C)(C)C(N)=O)cc2)c1=O [Example A21, 2-{-4-[3-Methyl-2-oxo-5-(4-quinolin-3-ylpyridin-2-yl)-2,3-dihydroimidazol-1-yl]-phenyl}isobutyramide], the IC50 [1] was 100 to 10000 nM, the Kd [2] was 0.1 to 100 nM and the melting point was 259 °C. It also gave an IC50 [3] of 100 to 10000 nM, an IC50 [4] greater than 10000 nM and an IC50 [5] of 0.1 to 100 nM. It also gave an IC50 [6] of 100 to 10000 nM.

Cc1nc2cc(-c3ccnc(-c4cn(C)c(=O)n4-c4ccc(C(C)(C)C#N)cc4)c3)cnc2[nH]1 [Example A7, 2-Methyl-2-(4-{3-methyl-5-[4-(2-methyl-3H-imidazo[4,5-b]pyridin-6-yl)pyridin-2-yl]-2-oxo-2,3-dihydroimidazol-1-yl}phenyl)propionitrile] showed an IC50 [1] of 100 to 10000 nM, a Kd [2] of 0.1 to 100 nM and a melting point of 288 °C. It also gave an IC50 [4] of 100 to 10000 nM, an IC50 [5] of 100 to 10000 nM and an IC50 [6] of 0.1 to 100 nM.

Cn1cc(-c2cc(-c3cnc4[nH]cc(C(F)(F)F)c4c3)ccn2)n(-c2ccc(C(C)(C)C#N)cc2)c1=O [Example A18, 2-Methyl-2-(4-{3-methyl-2-oxo-5-[4-(3-trifluoromethyl-1H-pyrrolo[2,3-b]pyridin-5-yl)pyridin-2-yl]-2,3-dihydroimidazol-1-yl}phenyl)propionitrile] gave an IC50 [1] of 100 to 10000 nM, a Kd [2] of 0.1 to 100 nM and a melting point of 159 °C. For the same compound, the IC50 [4] was 0.1 to 100 nM, the IC50 [5] was 100 to 10000 nM and the IC50 [6] was 100 to 10000 nM.

Cn1cc(-c2cc(-c3cccnc3)ccn2)n(-c2ccc(C(C)(C)C#N)cc2)c1=O [Example A10, 2-[4-(5-[3,4′]Bipyridinyl-2′-yl-3-methyl-2-oxo-2,3-dihydroimidazol-1-yl)phenyl]-2-methylpropionitrile] gave an IC50 [1] of 100 to 10000 nM, a Kd [2] of 100 to 10000 nM and a melting point of 180 °C. The IC50 [4] was greater than 10000 nM, the IC50 [5] was 0.1 to 100 nM and the IC50 [6] was 100 to 10000 nM.

With Cn1cc(-c2cc(-c3cnc(N)c(C(F)(F)F)c3)ccn2)n(-c2ccc(C(C)(C)C#N)cc2)c1=O [Example A40, 2-{4-[5-(6-Amino-5-trifluoromethyl-[3,4′]bipyridinyl-2′-yl)-3-methyl-2-oxo-2,3-dihydroimidazol-1-yl]phenyl}-2-methylpropionitrile] the IC50 [1] was 0.1 to 100 nM, the Kd [2] was 0.1 to 100 nM and the melting point was 195 °C. It also gave an IC50 [4] of 0.1 to 100 nM, an IC50 [5] of 0.1 to 100 nM and an IC50 [6] of 0.1 to 100 nM.

In the case of CNc1ccc(-c2ccnc(-c3cn(C)c(=O)n3-c3ccc(C(C)(C)C#N)cc3)c2)cn1 [Example A42, 2-Methyl-2-{4-[3-methyl-5-(6-methylamino-[3,4′]bipyridinyl-2′-yl)-2-oxo-2,3-dihydroimidazol-1-yl]phenyl}propionitrile], the IC50 [1] is reported as 100 to 10000 nM, the Kd [2] is reported as 0.1 to 100 nM and the melting point is reported as 191 °C. It also gave an IC50 [4] of 100 to 10000 nM, an IC50 [5] of 0.1 to 100 nM and an IC50 [6] of 100 to 10000 nM.

Work on CC(C)(CN)c1ccc(-n2c(-c3cc(-c4cnc5ccccc5c4)ccn3)c[nH]c2=O)cc1 [Example A16, 1-[4-(2-Amino-1,1-dimethylethyl)phenyl]-5-(4-quinolin-3-ylpyridin-2-yl)-1,3-dihydroimidazol-2-one] yielded an IC50 [1] of 100 to 10000 nM, a Kd [2] of 100 to 10000 nM and a melting point of 244 to 247 °C. The IC50 [4] was greater than 10000 nM, the IC50 [5] was 100 to 10000 nM and the IC50 [6] was 100 to 10000 nM.

With Cn1cc(-c2cc(-c3cnc4[nH]ccc4c3)ccn2)n(-c2ccc(C(C)(C)CN)cc2)c1=O [Example A35, 3-[4-(2-Amino-1,1-dimethylethyl)phenyl]-1-methyl-4-[4-(1H-pyrrolo[2,3-b]-pyridin-5-yl)pyridin-2-yl]-1,3-dihydroimidazol-2-one] the IC50 [1] was 100 to 10000 nM, the melting point was 91 °C and the IC50 [3] was 100 to 10000 nM. The IC50 [4] was 100 to 10000 nM, the IC50 [5] was 0.1 to 100 nM and the IC50 [6] was 100 to 10000 nM.

With Cn1cc(-c2cc(-c3cnc4[nH]ccc4c3)ccn2)n(-c2ccc(N3CCNCC3)c(C(F)(F)F)c2)c1=O [Example A25, 1-Methyl-3-(4-piperazin-1-yl-3-trifluoromethylphenyl)-4-[4-(1H-pyrrolo[2,3-b]-pyridin-5-yl)pyridin-2-yl]-1,3-dihydroimidazol-2-one] the IC50 [1] was 0.1 to 100 nM, the Kd [2] was 0.1 to 100 nM and the melting point was 163 °C. It also gave an IC50 [4] of 100 to 10000 nM, an IC50 [5] of 100 to 10000 nM and an IC50 [6] of 100 to 10000 nM.

With O=c1[nH]cc(-c2cc(-c3cnc4ccccc4c3)ccn2)n1-c1ccc(N2CCNCC2)c(C(F)(F)F)c1 [Example A5, 1-(4-piperazin-1-yl-3-trifluoromethylphenyl)-5-(4-quinolin-3-ylpyridin-2-yl)-1,3-dihydroimidazol-2-one] the IC50 [1] was 100 to 10000 nM, the Kd [2] was 100 to 10000 nM and the melting point was 155 °C. For the same compound, the IC50 [4] was 100 to 10000 nM, the IC50 [5] was 100 to 10000 nM and the IC50 [6] was 100 to 10000 nM.

Work on Cn1cc(-c2cc(-c3ccc(N)nc3)ccn2)n(-c2ccc(C(C)(C)C#N)cc2)c1=O [Example A8, 2-{4-[5-(6-Amino-[3,4′]bipyridinyl-2′-yl)-3-methyl-2-oxo-2,3-dihydroimidazol-1-yl]phenyl}-2-methylpropionitrile] yielded an IC50 [1] of 100 to 10000 nM, a Kd [2] of 0.1 to 100 nM and a melting point of 252 °C. For the same compound, the IC50 [4] was 100 to 10000 nM, the IC50 [5] was 100 to 10000 nM and the IC50 [6] was 0.1 to 100 nM.

CC(C)(C#N)c1ccc(-n2c(-c3cc(-c4cnc5ccccc5c4)ccn3)c[nH]c2=O)cc1 [Example A17, 2-Methyl-2-{4-[2-oxo-5-(4-quinolin-3-ylpyridin-2-yl)-2,3-dihydroimidazol-1-yl]-phenyl}propionitrile] gave an IC50 [1] of 100 to 10000 nM, a Kd [2] of 100 to 10000 nM and a melting point of 271 °C. For the same compound, the IC50 [4] was 100 to 10000 nM, the IC50 [5] was 100 to 10000 nM and the IC50 [6] was 100 to 10000 nM.

Work on Cn1cc(-c2cc(-c3cnc4[nH]ccc4c3)ccn2)n(-c2ccccc2)c1=O [Example A47, 1-Methyl-3-phenyl-4-[4-(1H-pyrrolo[2,3-b]pyridin-5-yl)pyridin-2-yl]-1,3-dihydroimidazol-2-one] yielded an IC50 [1] of 100 to 10000 nM, a melting point of 264 °C and an IC50 [3] of 100 to 10000 nM. For the same compound, the IC50 [4] was 100 to 10000 nM, the IC50 [5] was 0.1 to 100 nM and the IC50 [6] was 100 to 10000 nM.

For Cn1cc(-c2cc(-c3ccc4[nH]ccc4c3)ccn2)n(-c2ccc(C(C)(C)C#N)cc2)c1=O [Example A53, 2-(4-{5-[4-(1H-Indol-5-yl)pyridin-2-yl]-3-methyl-2-oxo-2,3-dihydroimidazol-1-yl}-phenyl)-2-methylpropionitrile], the IC50 [1] was greater than 10000 nM, the Kd [2] was 100 to 10000 nM and the melting point was 238 °C. The IC50 [4] was 100 to 10000 nM, the IC50 [5] was 0.1 to 100 nM and the IC50 [6] was 100 to 10000 nM.

Cn1cc(-c2cc(-c3cnc4[nH]ccc4c3)ccn2)n(-c2ccc(C(C)(C)C(N)=O)cc2)c1=O [Example A34, 2-(4-{3-Methyl-2-oxo-5-[4-(1H-pyrrolo[2,3-b]pyridin-5-yl)pyridin-2-yl]-2,3-dihydroimidazol-1-yl}phenyl)isobutyramide] showed an IC50 [1] of 100 to 10000 nM, a melting point of 299 °C and an IC50 [3] of 100 to 10000 nM. The IC50 [4] was 100 to 10000 nM, the IC50 [5] was 0.1 to 100 nM and the IC50 [6] was 0.1 to 100 nM.
